Assay results as given in article PMC9313812, “The Pseudo‐Natural Product Rhonin Targets RHOGDI” (Angewandte Chemie (International Ed. in English), 2022).

How the values were obtained:
[1] = Parallel artificial membrane permeability assay (PAMPA); assay type: in vitro ADME; conditions: initial 500 µM in donor, 20 h
Method: 500 µM final compound concentrations. The kinetic solubility of the compound solutions in HEPES buffer pH 7.4 were then compared to a solution in the organic solvent (ACN) after vigorous shaking on an orbital shaker at room temperature for 90 min. Therefore, the spectrum 250 -500 nm was recorded using the Spectramax plate reader. Precipitated material was removed by filtration prior to analysis. Each sample was tested in triplicate.
Aqueous solubility was also determined using a turbidimetric assay. DMSO stock solutions were diluted in DMSO to produce a range of concentrations. These were then added to PBS buffer pH7.4 (final test compound concentrations: 1 µM, 3 µM, 10 µM, 30 µM, 100 µM, 1% final DMSO concentration, 7 replicates per concentration). After 2 h incubation period at room temperature, the absorbance at 620 nm was read for each concentration and each replicate using a Spectramax plate reader.
Permeability through artificial membranes assay (PAMPA)
Permeability through artificial membranes (phospholipid/cholesterol in dodecane) was assessed at an initial compound concentration of 500 µM in the donor compartment. Absorption of the receiver wells was determined by spectrophotometrical measurement using a Spectramax absorbance plate reader after 20 h of incubation. Permeation was calculated by normalization of compound flux across a blank filter. […]

[2] = tested on: Alpl expression in C3H10T1/2 cells; assay: RT-qPCR of Alpl mRNA; assay type: cell-based, mouse; conditions: 1.5 μM purmorphamine, 96 h
Method: Supplementary Figure S6 (related to Figure 5). Characterization of compound 7l (Rhonin).
(a) GLI-responsive reporter gene assay in SHH-LIGHT2 cells. (b) Influence of Rhonin on the expression of Alpl. C3H10T1/2 cells were treated with 1.5 µM purmorphamine and the compounds for 96 h prior to RT-qPCR to detect Alpl mRNA levels. Data were normalzed to Gapdh and Ap3d1 gene levels and are mean values (n = 3) ± SD. (c) Detection of cilia in NIH/3T3 cells. NIH/3T3 cells were cultured in serum reduced (0.5 % FCS) medium for 24 h to induce cilia formation, followed by a pre-treatment of cells with different concentrations of 7l or Vismodegib or DMSO as a control in serum reduced medium. […]
projections, after previous background subtraction. For quantification, cilia were identified and […]
Smoothened antibody were measured within these areas. […]
significances were assessed using an unpaired t-test (confidence interval of 95%) with the […]
replicates were performed and for each replicate at least 100 cilia per condition were analyzed.
Reverse transcription- quantitative PCR (RT-qPCR) […]
DNase I digestion step. The concentration of purified RNA was determined by means of the […]
QuantiTect Reverse Transcription Kit (Qiagen) according to the manufacturer’s protocol. […]
determined by means of quantitative RT-PCR using the QuantiFast SYBR Green PCR Kit […]

RHO GTPases = assay: Immunoblotting of total cellular RHO GTPase levels; assay type: cell-based; conditions: 10 μM, 24 h

COC(=O)C1(C(CC(=O)c2cccnc2)c2ccccc2)N=C(c2ccc(Br)cc2)C2C(=O)N(C)C(=O)C21 (stereo not drawn) [7l]
permeability, flux in PAMPA [1]: 41.1% | Expression of the alkaline phosphatase gene Alpl (in words) [2]: inhibited the expression of the alkaline phosphatase gene | Total levels of the three RHO GTPases (in words) (RHO GTPases): did not alter the total levels
